# Like-named read-outs stand apart in the source and are kept apart here.
# Assays:
# [1] = test system: NSCLC cell lines (xenograft models); conditions: of the 10 NSCLC cell lines, GSE109302; cited from earlier work
# [2] = test system: Representative Cell Lines of TNBC tumor subtypes; conditions: TNBC subtypes from Lehmann et al.; cited from earlier work
# [3] = test system: cancer cell lines classified IM, MSL, M; test: PRISM screen compound sensitivity correlated with IM, MSL and M subtype of cell lines (101 gene signature); type: cell-based; conditions: for TNBCType train: training cell set (371 cell lines), 101 gene signature
# cancer cell lines = test: Correlation of gene expression with PRISM compound sensitivity across cell lines (gene:compound correlate pairs); type: cell-based; design: key: Pearson correlation of gene expression with compound sensitivity
# Experimental: This list of genes (based upon gene expression and gene dependency) was analyzed by Pearson correlation with the compound sensitivity data across the training cell lines. Correlation values, p values, q values and local false discovery rates were calculated. This analysis was repeated using the same set of compounds and genes on the test set of cell lines.
# A negative correlation means that the importance of the expression of that gene to cell health was linked to increased compound sensitivity. • compound gene dep train pvalue: Measure of significance for this association. • compound gene dep test corr: Correlation of gene dependency with compound sensitivity in the test data set. • TNBCType train: Classification of association of the compound sensitivity with the IM, MSL and M cell line classes in the training data set. • DTIO Corr train: Association of the compound sensitivity with the DetermaIO cell line classes in the training data set. • TNBCType test: Classification of the association of the compound sensitivity with the IM, MSL and M cell line classes in the test data set. • DTIO Corr test: Association of the compound sensitivity with the DetermaIO cell line classes in the test data set.
# [4] = test system: cancer cell lines, DetermaIO classes; test: Association of PRISM compound sensitivity with DetermaIO (DTIO) cell line classes; type: cell-based
# [5] = test system: cancer cell lines classified IM, MSL, M; test: Cancer Therapeutics Response Portal (CTRP) small-molecule sensitivity correlated with IM, MSL and M subtype; type: cell-based; conditions: CTRP and PRISM screens; IM class by 101 gene signature
# Experimental: Compound correlations where the correlation was negative, indicating sensitivity to the compound, and with a q value less than 0.05 were assessed.
# [6] = correlation of PRISM compound sensitivity with IM subtype correlation, test cell set (188 cell lines)
# [7] = correlation of PRISM compound sensitivity with M subtype correlation, test cell set (188 cell lines)
# [8] = correlation of PRISM compound sensitivity with MSL subtype correlation, test cell set (188 cell lines)
# [9] = correlation of PRISM compound sensitivity with DTIO (DetermaIO), test cell set (188 cell lines)
# [10] = correlation of PRISM compound sensitivity with DTIO (DetermaIO), training cell set (371 cell lines)
# [11] = correlation of compound sensitivity with DetermaIO (DTIO), test set
# [12] = correlation of compound sensitivity with DetermaIO (DTIO), training set
# [13] = correlation of PRISM compound sensitivity with IM subtype correlation, test cell set
# [14] = correlation of PRISM compound sensitivity with M subtype correlation, test cell set
# [15] = correlation of PRISM compound sensitivity with MSL subtype correlation, test cell set
# [16] = correlation of PRISM compound sensitivity with DTIO, test cell set
# [17] = correlation of PRISM compound sensitivity with DTIO, training cell set
compound,measurement,setting,value
COc1cc(C(=O)NC2CCN(C)CC2)c(F)cc1Nc1ncc(C(F)(F)F)c(Oc2cccc3c2C(=O)N(C)C3)n1 [BI 853520],Number of NSCLC cell lines resistant to the drug,[1],five
same,Number of NSCLC cell lines sensitive to the drug,[1],five
CC(O)(CS(=O)(=O)c1ccc(F)cc1)C(=O)Nc1ccc(C#N)c(C(F)(F)F)c1 (stereo not shown) [Bicalutimide],Tumor subtype whose representative cell lines respond to the treatment,[2],LAR
Cc1cc(CN2CCN(c3c(Br)cnc4nc(-c5ccc(N6CCN(C)CC6)cc5)[nH]c34)CC2)no1 [CCT137690],IM Corr test,[3]; [6],−0.03424
same,M Corr test,[3]; [7],−0.09289
same,MSL Corr test,[3]; [8],−0.02426
same,compound gene train corr,cancer cell lines,−0.1607
N.N.[Cl][Pt][Cl] [Cisplatin],Tumor subtype whose representative cell lines respond to the treatment,[2],BL1 and BL2
Cc1nc(Nc2ncc(C(=O)Nc3c(C)cccc3Cl)s2)cc(N2CCN(CCO)CC2)n1 [Dasantinib],Tumor subtype whose representative cell lines respond to the treatment,[2],M and MSL
Cn1c(=O)n(-c2ccc(C(C)(C)C#N)cc2)c2c3cc(-c4cnc5ccccc5c4)ccc3ncc21 [NVP-BEX235],Tumor subtype whose representative cell lines respond to the treatment,[2],M and MSL
COc1cc2c(NC3CCN(C(C)C)CC3)nc(N3CCC(F)(F)CC3)nc2cc1OCCCN1CCCC1 [UNC0642],IM Corr test,[3]; [6],−0.2049
same,M Corr test,[3]; [7],0.1456
same,MSL Corr test,[3]; [8],0.1789
same,compound gene test corr,cancer cell lines,−0.295
same,compound gene train corr,cancer cell lines,−0.1787
same,DTIO Corr test,[4]; [9],−0.1219
same,DTIO Corr train,[4]; [10],−0.0704
same,DTIO Corr test,[4]; [11],−0.1219
same,DTIO Corr train,[4]; [12],−0.0704
CCOC(=O)c1ncc2[nH]c3ccc(OCc4ccccc4)cc3c2c1COC.Cl [ZK-93423],IM Corr test,[3]; [13],0.2068
same,M Corr test,[3]; [14],−0.1479
same,MSL Corr test,[3]; [15],−0.01274
same,compound gene test corr,cancer cell lines,−0.2447
same,compound gene train corr,cancer cell lines,−0.1712
same,DTIO Corr test,[4]; [16],0.1767
same,DTIO Corr train,[4]; [17],0.1098
same,DTIO Corr test,[4]; [11],0.1767
same,DTIO Corr train,[4]; [12],0.1098
Cc1occc(=O)c1[O-].Cc1occc(=O)c1[O-].[O]=[V+2] [bis(maltolato)oxovanadium(IV)],compound gene train corr,cancer cell lines,−0.1081
C=CC(=O)Nc1cc2c(Nc3ccc(F)c(Cl)c3)ncnc2cc1OCCCN1CCOCC1 [canertinib],Sensitivity of tumors of the IM class to the compound,[5],especially sensitive
CS(=O)(=O)CCNCc1ccc(-c2ccc3ncnc(Nc4ccc(OCc5cccc(F)c5)c(Cl)c4)c3c2)o1 [lapatinib],Sensitivity of tumors of the IM class to the compound,[5],especially sensitive
CC1(S(=O)(=O)[O-])CC(=O)c2ccccc2C1=O.[Na+] (stereo not shown) [menadione-bisulfite],IM Corr test,[3]; [6],0.1925
same,M Corr test,[3]; [7],−0.2026
same,MSL Corr test,[3]; [8],−0.1086
same,compound gene test corr,"cancer cell lines; gene CHL1, test cell lines",−0.2459
same,compound gene train corr,"cancer cell lines; gene CHL1, training cell lines",−0.1641
same,compound gene test corr,"cancer cell lines; gene COL19A1, test cell lines",−0.2615
same,compound gene train corr,"cancer cell lines; gene COL19A1, training cell lines",−0.2071
same,compound gene test corr,"cancer cell lines; gene DSTYK, test cell lines",−0.2853
same,compound gene train corr,"cancer cell lines; gene DSTYK, training cell lines",−0.1942
same,compound gene test corr,"cancer cell lines; gene FCGR2A, test cell lines",−0.2554
same,compound gene train corr,"cancer cell lines; gene FCGR2A, training cell lines",−0.1722
same,compound gene test corr,"cancer cell lines; gene FCRLA, test cell lines",−0.2647
same,compound gene train corr,"cancer cell lines; gene FCRLA, training cell lines",−0.2401
same,compound gene test corr,"cancer cell lines; gene GHR, test cell lines",−0.2974
same,compound gene train corr,"cancer cell lines; gene GHR, training cell lines",−0.1701
same,compound gene test corr,"cancer cell lines; gene LUM, test cell lines",−0.3259
same,compound gene train corr,"cancer cell lines; gene LUM, training cell lines",−0.1958
same,compound gene test corr,"cancer cell lines; gene LZTS1, test cell lines",−0.3133
same,compound gene train corr,"cancer cell lines; gene LZTS1, training cell lines",−0.1907
same,compound gene test corr,"cancer cell lines; gene NCKAP5L, test cell lines",−0.3161
same,compound gene train corr,"cancer cell lines; gene NCKAP5L, training cell lines",−0.1648
same,compound gene test corr,"cancer cell lines; gene P2RX7, test cell lines",−0.2585
same,compound gene train corr,"cancer cell lines; gene P2RX7, training cell lines",−0.2054
same,compound gene test corr,"cancer cell lines; gene PLEKHO1, test cell lines",−0.2511
same,compound gene train corr,"cancer cell lines; gene PLEKHO1, training cell lines",−0.1601
same,compound gene test corr,"cancer cell lines; gene PLEKHO2, test cell lines",−0.3003
same,compound gene train corr,"cancer cell lines; gene PLEKHO2, training cell lines",−0.2127
same,compound gene test corr,"cancer cell lines; gene PLP1, test cell lines",−0.2422
same,compound gene train corr,"cancer cell lines; gene PLP1, training cell lines",−0.2332
same,compound gene test corr,"cancer cell lines; gene PLPP7, test cell lines",−0.2843
same,compound gene train corr,"cancer cell lines; gene PLPP7, training cell lines",−0.1831
same,compound gene test corr,"cancer cell lines; gene QKI, test cell lines",−0.2736
same,compound gene train corr,"cancer cell lines; gene QKI, training cell lines",−0.2164
same,compound gene test corr,"cancer cell lines; gene SYNM, test cell lines",−0.2591
same,compound gene train corr,"cancer cell lines; gene SYNM, training cell lines",−0.1742
same,compound gene test corr,"cancer cell lines; gene TAMALIN, test cell lines",−0.254
same,compound gene train corr,"cancer cell lines; gene TAMALIN, training cell lines",−0.1641
same,compound gene test corr,"cancer cell lines; gene WWTR1, test cell lines",−0.2508
same,compound gene train corr,"cancer cell lines; gene WWTR1, training cell lines",−0.1794
same,compound gene test corr,"cancer cell lines; gene ZCCHC24, test cell lines",−0.3161
same,compound gene train corr,"cancer cell lines; gene ZCCHC24, training cell lines",−0.1708
same,DTIO Corr test,[4]; [16],0.1362
same,DTIO Corr train,[4]; [17],0.003549
same,DTIO Corr test,[4]; test set,0.1362
same,DTIO Corr train,[4]; training set,0.003549
PF-477736,IM Corr test,[3]; [6],0.05795
same,M Corr test,[3]; [7],−0.1644
same,MSL Corr test,[3]; [8],−0.1066
same,DTIO Corr test,[4]; [16],−0.03209
same,DTIO Corr train,[4]; [17],−0.01779
Ro-25-6981,IM Corr test,[3]; [13],−0.1513
same,M Corr test,[3]; [14],0.04707
same,MSL Corr test,[3]; [15],−0.0147
same,DTIO Corr test,[4]; [16],−0.1247
same,DTIO Corr train,[4]; [17],−0.07012
iodoquinol,IM Corr test,[3]; [6],0.03942
same,M Corr test,[3]; [7],−0.09894
same,MSL Corr test,[3]; [8],−0.104
same,TNBCType train,"[3]; subtype (IM, MSL or M) assigned to the compound by negative correlation of PRISM sensitivity with subtype",MSL
same,DTIO Corr test,[4]; [9],0.03163
same,DTIO Corr train,[4]; [10],−0.06766
repsox,IM Corr test,[3],−0.07924
same,M Corr test,[3],0.1062
same,MSL Corr test,[3],0.08697
same,DTIO Corr test,[4],−0.03254
same,DTIO Corr train,[4],−0.05665
salvianolic-acid-B,IM Corr test,[3]; [6],0.001211
same,M Corr test,[3]; [7],−0.08646
same,MSL Corr test,[3]; [8],−0.06128
same,TNBCType train,"[3]; subtype (IM, MSL or M) with which compound sensitivity is negatively correlated",MSL
same,DTIO Corr test,[4]; [16],0.002256
same,DTIO Corr train,[4]; [17],−0.1092

# Source: patent US20250140406A1, “CLASSIFYING TUMORS AND PREDICTING RESPONSIVENESS” (Oncocyte Corporation, priority 2022, published 2025)
